Reference: US9872861B2, “Methods of treatment using selective Bcl-2 inhibitors” (AbbVie Inc., priority 2010, dated 2018)
Read-outs that look alike come from different tables or passages of the source. Marks after values point to notes of the source that are not given here.

How the values were obtained:
[1] = test system: renal tissue; assay: Renal histology and immunohistochemistry in spontaneous lupus nephritis mice; type: in vivo, (NZB×NZW)F1 mice
Method: An experiment was performed to determine the extent to which the selective Bcl-2 inhibitors infiltrated the kidney tissue. Specifically, a histologic assessment of the penetration of selective Bcl-2 inhibitors into the renal tissue of spontaneous murine model for lupus was performed. The spontaneous murine model of lupus, as described in Example 3, was used for the histological assessment described herein. The kidneys were bisected and then fixed in 10% neutral-buffered formalin or cryopreserved (snap frozen). For H&E staining, 5-μm sections from paraffin-embedded tissues were semiquantitatively scored (0-4) by an experienced pathologist for glomerulonephritis and tubular changes (dilation and casts). For IgG immunohistochemistry, 5-μm cryosections were fixed with acetone, washed, and blocked with 10% normal goat serum. Sections were then incubated with FITC-conjugated goat anti-mouse IgG (Cappel/ICN Pharmaceuticals) or negative control HRP-goat IgG (Jackson ImmunoResearch Laboratories) and coverslipped using Vectashield with 4′,6-diamidino-2-phenylindole (Vector Laboratories). Sections were evaluated for severity of IgG deposition using a semiquantitative scoring system (from 0-4). To identify for B and T cells, immunohistochemistry for CD45R (B cells) and CD3 (T cells) was completed on paraffin sections. FIGS. 6 and 7 illustrate the results of the histological assessment, and FIG. 8 illustrates the effect of selective Bcl-2 inhibitor treatment on IgG deposition, B cells, and T cells in the kidneys.

[2] = test system: peripheral blood immune cells; assay: Peripheral blood lymphocytes in C57BL/6 mice, Cell Dyn hematology analyzer; type: in vivo; conditions: for inhibition in vivo at 100 mg/kg: Mus musculus, Lymphocyte
Method: The effect of the Bcl-2 selective/Bcl-XL sparing compounds on peripheral blood immune cells was also evaluated in C57BL/6 mice. Mice were treated four days with individual compounds (100 mg/kg, orally every day) and cell numbers were measured with a Cell Dyn hematology analyzer.

[3] = test system: cells dependent on Bcl-2 for survival; assay: Mechanism of cell killing (apoptosis hallmarks); type: cell-based
From the text: As also shown in Table 1B, additional compounds show selective binding affinity for Bcl-2 over Bcl-XL and other Bcl-2 family proteins.

[4] = Exposure in IFNα-induced lupus model; type: in vivo
Method: Treatment was initiated in a late-prophylactic mode (7 days after IFNα adenovirus). […] All treatment groups were administered treatment 7 days after adenovirus injection. Following adenovirus injection, mice were monitored weekly for proteinuria (PU) using Albustix test strips (VWR). Severe PU was defined by consecutive weekly measurements of PU≧300 mg/dl. When mice became moribund, they were sacrificed according to Institutional Animal Care and Use Committee protocols.

[5] = test system: spontaneous (NZB×NZW)F1 murine model of lupus; assay: Spontaneous (NZB×NZW)F1 murine model of lupus: proteinuria, survival, lymphopenia; type: in vivo, (NZB×NZW)F1 mice
From the text: (See Liu, K. and C. Mohan, What do mouse models teach us about human SLE? Clin Immunol, 2006. 119(2): p. 123-30) This model has been well-characterized with respect to the patho-physiological changes analogous to those of human SLE. […] Renal histopathological changes include severe glomerulonephritis, mesangial and peripheral proliferative changes, capillary membrane thickening, tubular atrophy, and infiltration of lymphocytes and monocytes/macrophages as in the majority of human SLE patients. These changes result in disruption of kidney function as evidenced by severe proteinuria (PU) greater than 300 mg/dL as measured by albumin sticks, followed by mortality as measured by survival. […] (See Gelfand, M. C. and A. D. Steinberg, Therapeutic studies in NZB-W mice. II. Relative efficacy of azathioprine, cyclophosphamide and methylprednisolone. Arthritis Rheum, 1972. 15(3): p. 247-52; and Ramos, M. A., et al., Modulation of autoantibody production by mycophenolate mofetil: effects on the development of SLE in (NZB×NZW)F1 mice. Nephrol Dial Transplant, 2003. 18(5): p. 878-83)
(NZB×NZW)F1 females were purchased from The Jackson Laboratory (Bar Harbor, Me., USA) and maintained in a conventional animal housing facility throughout the experiment. […] Proteinuria (PU) and survival were monitored weekly, followed by biweekly measurement of lymphocyte and platelet counts, and anti-ds DNA production. PK parameters were also measured throughout the study. Impact on IgG deposition and renal pathology were assessed at the conclusion of the study. Severe PU was defined by two consecutive weekly measurements of PU 300 mg/dl using Albustix test strips (VWR). When mice became moribund, they were sacrificed according to Institutional Animal Care and Use Committee protocols. PU and survival data were presented as Kaplan-Meyer survival curves using Graphpad Prism software and group differences were considered significant at the level of p<0.05. Histologic scores were analyzed using ANOVA analysis. Anti-ds DNA were analyzed using one-way ANOVA analysis and Tukey post-test.

## CC1(C)CCC(CN2CCN(c3ccc(C(=O)NS(=O)(=O)c4ccc(NCC5CCOCC5)c([N+](=O)[O-])c4)c(Oc4cnc5[nH]ccc5c4)c3)CC2)=C(c2ccc(Cl)cc2)C1 [Compound 1, 4-(4-{[2-(4-chlorophenyl)-4,4-dimethylcyclohex-1-en-1-yl]methyl}piperazin-1-yl)-N-({3-nitro-4-[(tetrahydro-2H-pyran-4-ylmethyl)amino]phenyl}sulfonyl)-2-(1H-pyrrolo[2,3-b]pyridin-5-yloxy)benzamide]
[1]; 30 mg/kg
  IgG deposition in renal tissue: decrease in IgG deposition
[1]; 30 mg/kg and 100 mg/kg
  renal histology scores (glomerulonephritis, tubular changes, perivascular infiltrates): statistically significant improvement
[1]; 100 mg/kg
  B cell and T cell numbers in renal tissue: decreases in B cell and T cell numbers
[1]; 30 or 100 mg/kg
  renal tissue infiltrates: small, discrete and less frequent
[2]; 1 oral dose of 100 mg/kg
  Day 1 Lymphocytes: 1.38 ×10^6
[2]; 4 oral doses of 100 mg/kg
  Day 4 lymphocytes: 1.32 ×10^6
[2]; 24 h, 1 oral dose of 100 mg/kg, read-out: Day 1 % Reduction vs. Vehicle
  inhibition in vivo at 100 mg/kg: 83%
[2]; 96 h, 4 oral doses of 100 mg/kg, read-out: Day 4 % Reduction vs. Vehicle
  inhibition in vivo at 100 mg/kg: 83%
[3]
  hallmarks of apoptotic cell death: rapid cytochrome c release, caspase-3 and -7 activation, and membrane phosphatidylserine (PS) externalization
[3]; ablated by pan caspase inhibitor z-VAD-fmk
  caspase dependence of cell killing: caspase-dependent
[4]
  target efficacious exposure: approximately 40 μg·h/mL
[5]; Week 47, 1 mg/kg daily oral
  % Mice with PU < 300 mg/dL: 51%
  % Survival: 60%
[5]; Week 47, 3 mg/kg daily oral
  % Mice with PU < 300 mg/dL: 50%
  % Survival: 70%
[5]; Week 47, 10 mg/kg daily oral
  % Mice with PU < 300 mg/dL: 66* %
  % Survival: 83* %
[5]; Week 47, 30 mg/kg daily oral
  % Mice with PU < 300 mg/dL: 94* %
  % Survival: 100* %
[5]; Week 47, 100 mg/kg daily oral
  % Mice with PU < 300 mg/dL: 100* %
  % Survival: 100* %
[5]; spontaneous model, 30 mg/kg
  lymphopenia in peripheral blood: 70%
[5]; spontaneous model, 100 mg/kg
  lymphopenia in peripheral blood: 70%
[5]; spontaneous model, 3, 10, 30 and 100 mg/kg
  survival: significantly prolonged survival
[5]; spontaneous model, reaching significance at 10, 30 and 100 mg/kg
  onset of severe PU: delayed onset of severe PU in a dose-dependent fashion
